These results are taken from patent US20250108023A1, “Products for Masking Bitterness” (The Third People's Hospital of Henan Province, priority 2023, published 2025).

Where two headings read alike, the source gives them in different places. A value given as a limit tells only on which side of the number the result lay.

Assay [1] is described as follows: Oral spray bitterness masking taste test by volunteers with Coptis chinensis standard bitter solution. Type of assay: in vivo, healthy volunteers. Further details: key to bitterness value after drug: bitterness value 0.5–5.5; 1 = none, 5 = unbearable; key to Reduction of bitterness: drop in bitterness value (0.5–5.5 scale) from initial. Conditions: for Reduction of bitterness: original bitterness average 4.0, average of 31 cases; for Duration >: retention time until bitterness rises; for bitterness value after drug: initial bitterness 4.0, 16 cases; for inhibition in vivo at 0.2 %: Homo sapiens, read-out: Reduction range. The method, then:
Purpose of the experiment: it is to screen out compounds that take effect within 5 seconds, last for 30-120 seconds, and it is expected, by using such kind of compounds, the taste of the drug cannot be felt during the duration (30-120 seconds) when taking the drug.
Principle of the experiment: simulate the process of taking medicine and using the taste masking agents, first spray about 0.5 ml of oral spray on the throat (3 times), and after it takes effect quickly, taste 10 ml of bitter standard solution to screen drugs that can be used in advance and can mask the bitter taste.
• 1: Volunteer screening. The research team strictly screened the recruited volunteers and finally selected healthy volunteers as subjects. They signed informed consent forms before the experiment; • 2: Standard bitterness sample preparation. The bitterness of the samples was divided into five levels, and each level was assigned a certain bitterness value range; • 3: The sensory standard was corrected by the oral taste evaluation method, that is, the sensory standard was corrected by comparing the taste evaluation of the volunteers with the established bitterness value of the reference sample group. Specific steps: when the volunteers are doing the oral tasting test, the reference solutions of various concentrations are placed in the tasting cups, and the volunteers hold one of the solutions in their mouths, time it, and rinse their mouths by using the solution so that the bitter taste perception area at the root and sides of the tongue can fully feel the bitter taste of the drug. […] Then dilute all the selected taste masking drugs, prepare the solution, take 10 ml and put it into the spray bottle, spray it into the mouth 3 times, stay for 5 seconds, drink 10 ml of standard bitterness solution, feel and record the bitterness value, keep the standard bitterness solution in the mouth until the bitterness rises, and record the retention time. • 5: Quality control. […] Since the experimental objects are biological samples and there are individual differences between different subjects, there may be individual outliers in the experimental test data. The Grubbs test method was used to exclude outliers in the data, and then the experimental data were plotted in tables and curves for data analysis.
It is necessary to process the experimental data. Specifically, the Grubbs test method was used to perform a circular test and elimination of outliers on the data, and a bilateral test was used to eliminate outliers in the oral test. Considering the characteristics of biological samples, the detection level was selected as 0.1 and the elimination level was selected as 0.05 in this experiment.
The experimental medicinal material processing method mentioned in the above technical scheme is as follows: Preparation of bitter standard solution, use 10 g of Coptis chinensis powder, add 100 ml of pure water above 90 degrees, stir, let stand for 20 minutes, take the supernatant for use, determine the standard bitterness of 4.0 degrees by oral tasting, dilute 5 times, determine the standard bitterness of 2.0 degrees, dilute 2.0 degrees again 5 times, determine the standard bitterness of 0.5 degrees. Compare with the bitterness scoring table, (level 1 means “no bitterness or almost no bitterness”, the bitterness value is 0.5˜1.5; level 2 means “slightly bitter”, the bitterness value is 1.5˜2.5; level 3 means “bitter but acceptable”, the bitterness value is 2.5˜3.5; level 4 means “very bitter, but still tolerable”, the bitterness value is 3.5˜4.5; level 5 means “unbearable bitterness”, the bitterness value is 4.5˜5.5). Adjust the judgment and cognition of bitterness.
The standard bitterness solution used in this experiment to verify the experimental effect is a 4.0 degree bitterness solution of Coptis chinensis prepared according to the above method.

A short description of assay [2]: Broad-spectrum taste masking test on decoctions of extremely bitter Chinese herbal medicine slices. Type of assay: in vivo, healthy volunteers. Further details: key: reduction in bitterness degrees on a 5-degree graduation scale. Conditions: 0.1% taste masking agent in 40% ethanol. The method, then:
According to the standard of decocting 100 ml of liquid from 10 g of dry Chinese herbal medicine slices (decoction method: use a stainless steel container, and keep for 20 minutes after boiling), from 300 commonly used Chinese herbal medicine slices, combined with the Chinese Pharmacopoeia, more than 20 Chinese herbal medicines with bitter or extremely bitter properties written in the pharmacopoeia were selected, including Bletilla striata, Cortex qin, Stephania tetrandra, Apricot kernel, Belamcanda chinensis, Angelica dahurica, Lotus seed heart, Toosendan fruit, Andrographis paniculata, Sophora flavescens, Coptis chinensis, Gentiana scabra, Forsythia suspensa, Sophora japonica, Phellodendron amurense, Scutellaria baicalensis, Platycodon grandiflorum, Notopterygium wilfordii, Saposhnikovia divaricata, Perilla frutescens, Zanthoxylum bungeana, Osmanthus fragrans, Sophora flavescens, and Chrysanthemum officinale, totally 24 kinds of Chinese herbal medicines.
Finally, through the 5-degree graduation method, 2 species with a bitterness higher than 3.5 (moderate bitterness) and 7 species with a bitterness higher than 5 degrees (highly bitter, extremely bitter, accompanied by nausea) were screened out, a total of 9 species (Angelica pubescens, Lotus Seed Heart, Toosendan, Andrographis paniculata, Sophora flavescens, Coptis chinensis, Gentiana scabra, Forsythia suspensa, Sophora japonica) are selected as bitterness representatives to participate in the bitterness masking experiment. (Note: The bitterness of Coptis chinensis slices can reach 5.2 after 20 minutes of water decoction. The reference standard solution is 90-degree water brewing Coptis chinensis powder, it is automatically cooled to obtain a solution with a bitter taste of 4.0. Because Coptis chinensis has been used as a standard bitter liquid, it is no longer used).
The experimental method is the same as the previous part.

Where [3] appears, read: 0.2% solution in 60% ethanol as oral spray.
[4] abbreviates: 0.2% solution in 60% ethanol as oral spray, relative to original bitterness 4.0.
The mark [5] stands for this setting: concentration 0.001% in 60% ethanol.
[6] abbreviates: concentration 0.005% in 60% ethanol.
Setting [7] is: concentration 0.02% in 60% ethanol.
[8] abbreviates: concentration 0.10% in 60% ethanol.
The mark [9] stands for this setting: concentration 0.50% in 60% ethanol.

trans-caryophyllene came in with a Reduction of bitterness in assay [1] (setting [3]) of 2.3. In assay [1] (setting [4]), the Reduction range was found to be 57.50%. In assay [1] (setting [3]), the “Duration >” value is listed as above 30 s. For the same compound, the “bitterness value after drug” value in assay [1] (setting [5]) came to 3.8; in assay [1] (setting [6]), 2.6; in assay [1] (setting [7]), 1.9; in assay [1] (setting [8]) it was 1.7; in assay [1] (setting [9]) it was 1.8.
In turn, `CCCCCC1=C(C)CCC1=O` [Dihydrojasmone] displayed a Reduction of bitterness in assay [1] (setting [3]) of 0. The same compound returned a Reduction range in assay [1] (setting [4]) of 0.00%.
For `COc1cc(C=O)cc(O)c1O` [Hydroxyvanillin] the same measures were 0 and 0.00%.
`COC(=O)[C@@H]1CC2=CC(=O)CC[C@]2(C)[C@@]23O[C@@H]2C[C@@]2(C)[C@@H](CC[C@@]24CCC(=O)O4)[C@H]13` [Eplerenone, reference compound]: in assay [1] (setting [4]), the inhibition in vivo at 0.2 % is 0%.
For the compound `CCNC(=O)[C@@H]1C[C@H](C)CC[C@H]1C(C)C` [Menthamide, N-ethyl-L-menthyl carboxamide], the Bitterness reduction value in assay [2] (Andrographis paniculata, original bitterness 5) was found to be 0.5; in assay [2] (Forsythia suspensa, original bitterness 3) it was 1.7; in assay [2] (Gentiana, original bitterness 5), 1; in assay [2] (Lotus seed heart, original bitterness 5) it was 2.8; in assay [2] (Puhuo, original bitterness 5) it was 2.1; in assay [2] (Sophora flavescens, original bitterness 5) it was 1. The compound further came in with a Bitterness reduction value in assay [2] (Toulianzi, original bitterness 5) of 1. Also, the Reduction of bitterness in assay [1] (setting [3]) worked out at 2.5. The Reduction range in assay [1] (setting [4]) was 62.50%. For the same compound, the “Duration >” value in assay [1] (setting [3]) is recorded as above 120 s. Moreover, the “bitterness value after drug” value in assay [1] (setting [5]) is given as 2.4; in assay [1] (setting [6]), 1.8; in assay [1] (setting [7]) it was 1.5; in assay [1] (setting [8]) it was 1.5; in assay [1] (setting [9]) it was 1.6.
`CC1(C)C2CCC1(C)C(O)C2` (stereo not shown) [Borneolum, 2-borneol]: the “Duration >” value in assay [1] (setting [3]) is above 10 s. The inhibition in vivo at 0.2 % in assay [1] (setting [4]) worked out at 52.5%. Also, the “bitterness value after drug” value in assay [1] (setting [5]) is recorded as 4; in assay [1] (setting [6]) it was 3.4; in assay [1] (setting [7]), 2.6; in assay [1] (setting [8]) it was 1.9; in assay [1] (setting [9]), 2.2.
As for `O=C(/C=C/C=C/c1ccc2c(c1)OCO2)N1CCCCC1` [Piperine, (E,E)-1-[5-(1,3-benzodioxol-5-yl)-1-oxo-2,4-pentadieny1]-piperidine], the “Duration >” value in assay [1] (setting [3]) is above 30 s. Moreover, in assay [1] (setting [4]), the inhibition in vivo at 0.2 % came out at 52.5%. For the same compound, the “bitterness value after drug” value is 3.9 in assay [1] (setting [5]); 2.5 in assay [1] (setting [6]); 2.3 in assay [1] (setting [7]); 1.9 in assay [1] (setting [8]); 1.9 in assay [1] (setting [9]).
In turn, `O=S(=O)([O-])[O-].[Mg+2]` [Magnesium sulfate] gave a Reduction of bitterness in assay [1] (setting [3]) of 1.5. Also, the Reduction range in assay [1] (setting [4]) is listed as 37.50%. Moreover, the “Duration >” value in assay [1] (setting [3]) is on record as above 20 s. The “bitterness value after drug” value in assay [1] (setting [5]) amounted to 3.5; in assay [1] (setting [6]), 3.2; in assay [1] (setting [7]), 2.8; in assay [1] (setting [8]) it was 2.5; in assay [1] (setting [9]), 2.3.
Turning to `CNC(=O)C(C)(C(C)C)C(C)C` [Cooling agent WS-23, N,2,3-trimethyl-2-isopropylbutyramide], the “Duration >” value in assay [1] (setting [3]) is reported as above 30 s. Also, the inhibition in vivo at 0.2 % in assay [1] (setting [4]) turned out to be 50%. Further, the “bitterness value after drug” value in assay [1] (setting [5]) is recorded as 2.5; in assay [1] (setting [6]) it was 2.4; in assay [1] (setting [7]) it was 2.1; in assay [1] (setting [8]), 2; in assay [1] (setting [9]), 2.1.
Regarding `Cc1ccc(C(C)C)cc1O` [Carvacrol], the inhibition in vivo at 0.2 % in assay [1] (po) turned out to be 0%.
`CCCN(CCC)S(=O)(=O)c1ccc(C(=O)O)cc1` [Probenecid, reference compound]: in assay [1] (setting [3]), the “Duration >” value is listed as above 30 s. In addition, the inhibition in vivo at 0.2 % in assay [1] (setting [4]) was 12.5%.
Dodecalactone had a Reduction of bitterness in assay [1] (setting [3]) of 0. This compound returned a Reduction range in assay [1] (setting [4]) of 0.00%.
`COC(=O)C1=C(C)NC(C)=C(C(=O)OC)C1c1ccccc1[N+](=O)[O-]` [Nifedipine, reference compound]: in assay [1] (setting [4]), the inhibition in vivo at 0.2 % amounted to 0%.
Consider `CCOC(=O)C1=C(COCCN)NC(C)=C(C(=O)OC)C1c1ccccc1Cl` (stereo not shown) [Amlodipine, reference compound], for which the inhibition in vivo at 0.2 % in assay [1] (setting [4]) came to 0%.
Take `CCOC(=O)CNC(=O)[C@@H]1C[C@H](C)CC[C@H]1C(C)C` [Cooling agent WS-5, [((IR, 2S, 5R)-2-isopropyl-5-methyl-cyclohexanecarbonyl)-amino]-ethyl acetate]: the Reduction of bitterness in assay [1] (setting [3]) came out at 2.3. For the same compound, the Reduction range in assay [1] (setting [4]) is 57.50%. For the same compound, the “Duration >” value in assay [1] (setting [3]) is above 100 s. Moreover, the “bitterness value after drug” value in assay [1] (setting [5]) was 2.6; in assay [1] (setting [6]), 1.8; in assay [1] (setting [7]), 1.7; in assay [1] (setting [8]), 1.7; in assay [1] (setting [9]) it was 1.8.
In the case of `O=c1c(O)c(-c2ccc(O)c(O)c2)oc2cc(O)cc(O)c12` [Quinolide], in assay [1] (setting [4]), the inhibition in vivo at 0.2 % amounted to 0%.
The same measure, in the same setting: the result for `O=C(CCc1ccc(O)cc1)c1c(O)cc(O)cc1O` [Phloretin] reads 0%.
`CC1CC(O)CC(C)(C)C1` (stereo not shown) [Trimethylcyclohexanol]: in assay [1] (setting [3]), the Reduction of bitterness came out at 0. Besides, the Reduction range in assay [1] (setting [4]) was found to be 0.00%.
